# According to patent US20240180898A1, “USE OF AMINOTHIAZOLE DERIVATIVE IN TREATMENT OF IMMUNE INFLAMMATION” (INNAMUNE PHARMACEUTICAL CO. LTD., priority 2021, published 2024):
# Assays:
# [1] = system: macrophages derived from mouse bone marrow; assay: LPS-induced secretion of inflammatory factors from macrophages, ELISA of supernatant; format: cell-based; conditions: 30 umol/L 2 hours before LPS 500 ng/ml for 24 hours; FIG. 2
# Method: macrophage grouping (in vitro):
# Cultivate macrophages derived from mouse bone marrow in vitro.
# The experiment was divided into 8 groups, namely: • Control group (untreated mouse bone marrow-derived macrophages), • LPS group (500 ng/ml LPS stimulated macrophages for 24 hours), • LPS+TJ-2 group (2 hours before LPS stimulation, administer 30 umol/L TJ-2 drug stimulation), • LPS+TJ-5 group (2 hours before LPS stimulation, administer 30 umol/L TJ-5 drug stimulation), • LPS+TJ-8 group (2 hours before LPS stimulation, administer 30 umol/L TJ-8 drug stimulation), • LPS+TJ-9 group (2 hours before LPS stimulation, administer 30 umol/L TJ-9 drug stimulation), • LPS+TJ-11 group (2 hours before LPS stimulation, administer 30 umol/L TJ-11 drug stimulation), • and LPS+TJ-12 group (2 hours before LPS stimulation, administer 30 umol/L TJ-12 drug stimulation).
# After 24 hours of LPS stimulation, the cell culture supernatant was removed and ELISA was performed to detect the concentration of various inflammatory factors in the supernatant.
# [2] = system: Balb/c mouse psoriasis model; assay: mouse psoriasis model (imiquimod cream); format: in vivo
# Source text: (§1) Preparation and grouping of mouse […] model:
# Model preparation: Male Balb/c mice aged 6-8 weeks were shaved on the back skin and coated with 5% imiquimod (IMQ) cream once a day for 7 consecutive days.
# The experiment was divided into three groups, namely: • Psoriasis control group (without any treatment, psoriasis model group), TJ-M2010-5 systemic medication group (intraperitoneal injection), and TJ-M2010-5 local medication group (ointment group). The specific handling method is as follows: • TJ-M2010-5 systemic medication group: A Balb/c mouse psoriasis model was taken and TJ- M2010-5 was injected intraperitoneally at a dose of 50 mg/kg, once a day, for 2 consecutive weeks. • TJ-M2010-5 local medication group: A Balb/c mouse psoriasis model was taken, and 1% TJ-M2010-5 ointment was applied on the skin, once a day, for 2 consecutive weeks.
# mouse eczema model = assay: mouse atopic dermatitis/eczema model; format: in vivo
# Method: as §1
# Model preparation: Male C57 mice aged 6-8 weeks were treated with 2% M7309 (carboplatin) ointment on their ears once a day for 10 consecutive days.
# The experiment was divided into three groups, namely: • Eczema control group (without any treatment, eczema model group), TJ-M2010-5 systemic medication group (intraperitoneal injection), and TJ-M2010-5 local medication group (ointment group). The specific handling method is as follows: • TJ-M2010-5 systemic medication group: A mouse eczema model was taken and TJ-M2010-5 was injected intraperitoneally at a dose of 50 mg/kg, once a day, for 2 consecutive weeks. • TJ-M2010-5 local medication group: Take a mouse eczema model, apply 1% TJ-M2010-5 ointment on the skin, once a day, for 2 consecutive weeks.
# [3] = system: inflammatory colon cancer model; assay: AOM/DSS induced inflammatory colon cancer model; format: in vivo, mouse
# Method: Preparation and grouping of mouse inflammatory colon cancer model:
# Model preparation: 6-8-week-old male C57 mice were intraperitoneally injected with AOM (10 mg/Kg)/DSS (2.5%) to induce an inflammatory colon cancer model.
# The experiment was divided into two groups, namely: • Inflammatory colon cancer model group (without any treatment, i.e. AOM/DSS group), TJ-M2010-5 medication group (intraperitoneal injection). The specific handling method is as follows: • TJ-M2010-5 medication group: Two days before inducing inflammatory colon cancer in C57 mice by intraperitoneal injection of AOM (10 mg/kg)/DSS (2.5%), TJ-M2010-5 was injected intraperitoneally at a dose of 50 mg/kg once a day for 10 consecutive weeks.
# [4] = drug concentration in blood after skin ointment on maximum body area; format: in vivo; conditions: skin ointments applied to the maximum body area
# [5] = system: middle cerebral artery occlusion (MCAO) model; assay: reperfusion injury after acute cerebral infarction (MCAO model); format: in vivo, mouse; conditions: 15 mg/kg intravenously, 1 hour ischemia, 24 hours reperfusion
# Method: Preparation and grouping of a mouse model of reperfusion injury after acute cerebral infarction: Model preparation: Adult male C57BL/6 mice (8-10 weeks old, weighing 22-25 g) were fasted for 8 hours before surgery and allowed to drink freely. Intraperitoneal injection of 1% pentobarbital sodium solution for anesthesia. […]
# CSDS depression model = assay: Frustrative Depression (CSDS) model; format: in vivo, mouse; conditions: C57BL/6J mice
# Method: Male C57BL/6J mice (6-7 weeks old, 18-20 g weight) and male CD-1 mice ([…] old) were used to create a model of Frustrative Depression (CSDS). C57BL/6J mice were attacked by different CD-1 […] for 10 minutes every day for 10 consecutive days. At night, the two types of mice were kept in the same cage separated by a perforated transparent glass to maintain the pressure of the attack.
# [6] = intraperitoneal 50 mg/kg once a day, 10 weeks
smiles,measurement,setting,value
"O=C(CCN1CCN(Cc2ccccc2)CC1)Nc1nc(-c2ccccc2)cs1 [INNA1605, 3-(4-benzylpiperazine-1-yl)-N-(4-phenylthiazole-2-yl) propionamide]",inhibitory effect on inflammatory factors compared among the compounds,[1],have the same inhibitory effect on inflammatory factors
same,"secretion of various inflammatory factors in macrophages (IL-1β, Il-6, TNF-α, IL-18, IL-17)",[1],can inhibit the secretion of various inflammatory factors in macrophages
same,"therapeutic effect, local medication","[2]; 1% ointment on the skin once a day, 2 weeks","excellent therapeutic effects, with a significant improvement after 7 days and a cure effect achieved after 14 days"
same,infiltration and proliferation of mast cells,[2]; H&E and C-kit (CD117) staining,inhibits the infiltration and proliferation of mast cells
same,abnormally thickened stratum corneum,[2]; after treatment,can basically restore normal tissue structure after treatment
same,inflammatory cells in the skin,[2]; both treatments (systemic and local),significantly reduce inflammatory cells in the skin
same,imbalance of spleen T cells and their subsets,[2]; flow cytometry,correct the imbalance of spleen T cells and their subsets
same,"therapeutic effect, systemic medication","[2]; intraperitoneal 50 mg/kg once a day, 2 weeks","excellent therapeutic effects, with a significant improvement after 7 days and a cure effect achieved after 14 days"
same,excessive keratinization and proliferation of skin keratinocytes,"[2]; mouse, in vivo",inhibit excessive keratinization and proliferation of skin keratinocytes
same,expression of CD80,"[2]; mouse, in vivo",significantly reduces the expression of CD80
same,"expression of intradermal lymphokines (IL-1beta, IL-6, IL-17a, TNF-alpha, MyD88 mRNA, Cxcl2 mRNA)","[2]; mouse, in vivo",inhibits the expression of intradermal lymphokines
same,skin thickness,"[2]; mouse, in vivo",significant thinning of skin thickness
same,splenomegaly,"[2]; mouse, in vivo",can improve splenomegaly
same,MAPK signaling pathway,[2]; psoriasis model skin,inhibits the MAPK signaling pathway
same,synthesis and secretion of inflammatory factors,[2]; skin,inhibiting the synthesis and secretion of inflammatory factors
same,"immune cell infiltration and activation (macrophages, neutrophils, mast cells)",[2]; skin tissue,a reduction in immune cell infiltration and activation
same,"therapeutic effect, local medication","mouse eczema model; 1% ointment once a day, 2 weeks",excellent therapeutic effects
same,abnormally thickened stratum corneum,mouse eczema model; after treatment,can basically restore normal tissue structure
same,inflammation,mouse eczema model; after treatment,significantly reduced
same,various inflammatory factors in the skin,"mouse eczema model; mouse, in vivo",decreased
same,proliferation of epithelial cells in the colon mucosa,"[3]; BrdU, Ki-67",significantly inhibited
same,neutrophil infiltration,[3]; MPO staining of colon mucosa,significantly reduced
same,inflammatory tissue damage of the colon mucosa,[3]; [6],significantly reduced
same,therapeutic effect,[3]; [6],excellent
same,no carcinogenesis observed,[3]; model group 100% cancerous transformation,100%
same,colitis,"[3]; mouse, in vivo",disappeared
same,mucosal thickening,"[3]; mouse, in vivo",improved
same,drug concentration in the blood,[4],2 to 3 ng/mL
same,reduction of infarct volume of acute cerebral infarction,[5],80%
same,induced depressive behavior and neuroinflammation in the brain,CSDS depression model,significantly improves induced depressive behavior and neuroinflammation in the brain
